From ChEMBL document CHEMBL5233266, “β-Carboline as a Privileged Scaffold for Multitarget Strategies in Alzheimer's Disease Therapy” (J Med Chem, 2021)
Converted amounts (≈) assume the structure as drawn.

Legend:
[1] = molecular target: 5-hydroxytryptamine receptor 2A (Homo sapiens, UniProt P28223); assay: Displacement of [3H]-LSD from human 5-HT2A expressed in human HEK cells assessed as inhibition constant by FLIPR assay; type: cell-based
[2] = molecular target: T1, 5-hydroxytryptamine receptor 3A (Homo sapiens, UniProt P46098); assay: Binding affinity to 5-HT3R (unknown origin) assessed as inhibition constant
T1 sequence (P46098 whole entry): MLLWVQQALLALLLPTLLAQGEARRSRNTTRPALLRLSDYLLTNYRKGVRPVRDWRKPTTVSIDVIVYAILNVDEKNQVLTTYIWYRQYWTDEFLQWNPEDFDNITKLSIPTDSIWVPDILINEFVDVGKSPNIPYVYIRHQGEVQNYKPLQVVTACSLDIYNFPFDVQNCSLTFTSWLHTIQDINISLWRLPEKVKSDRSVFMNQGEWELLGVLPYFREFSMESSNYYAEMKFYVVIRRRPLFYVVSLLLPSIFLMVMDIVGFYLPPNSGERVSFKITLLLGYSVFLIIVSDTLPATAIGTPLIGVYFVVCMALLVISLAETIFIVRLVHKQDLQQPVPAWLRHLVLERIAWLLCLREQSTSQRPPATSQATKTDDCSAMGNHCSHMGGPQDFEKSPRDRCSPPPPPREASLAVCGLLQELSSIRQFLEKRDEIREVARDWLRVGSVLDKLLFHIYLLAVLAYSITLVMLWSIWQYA

[3] = molecular target: 5-hydroxytryptamine receptor 1A (Homo sapiens, UniProt P08908); assay: Displacement of […] from human 5-HT1A expressed in human HEK cells assessed as inhibition constant by FLIPR assay; type: cell-based
Sequence of 5-hydroxytryptamine receptor 1A (P08908 whole entry): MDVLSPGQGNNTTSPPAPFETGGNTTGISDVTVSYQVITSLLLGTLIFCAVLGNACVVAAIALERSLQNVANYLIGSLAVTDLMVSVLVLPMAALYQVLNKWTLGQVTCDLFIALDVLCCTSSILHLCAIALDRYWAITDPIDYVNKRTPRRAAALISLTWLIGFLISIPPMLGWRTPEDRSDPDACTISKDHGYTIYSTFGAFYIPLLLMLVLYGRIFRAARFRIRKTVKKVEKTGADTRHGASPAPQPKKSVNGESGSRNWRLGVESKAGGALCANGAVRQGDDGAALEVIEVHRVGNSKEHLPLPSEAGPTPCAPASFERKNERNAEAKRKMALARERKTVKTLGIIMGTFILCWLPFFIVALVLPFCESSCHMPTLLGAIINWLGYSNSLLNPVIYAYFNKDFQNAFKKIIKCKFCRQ

Beta-secretase 1 = Beta-secretase 1 (Homo sapiens, UniProt P56817); assay: Inhibition of BACE1 (unknown origin) expressed in HEK293 cells by FRET assay; type: cell-based
Sequence of Beta-secretase 1 (P56817 whole entry): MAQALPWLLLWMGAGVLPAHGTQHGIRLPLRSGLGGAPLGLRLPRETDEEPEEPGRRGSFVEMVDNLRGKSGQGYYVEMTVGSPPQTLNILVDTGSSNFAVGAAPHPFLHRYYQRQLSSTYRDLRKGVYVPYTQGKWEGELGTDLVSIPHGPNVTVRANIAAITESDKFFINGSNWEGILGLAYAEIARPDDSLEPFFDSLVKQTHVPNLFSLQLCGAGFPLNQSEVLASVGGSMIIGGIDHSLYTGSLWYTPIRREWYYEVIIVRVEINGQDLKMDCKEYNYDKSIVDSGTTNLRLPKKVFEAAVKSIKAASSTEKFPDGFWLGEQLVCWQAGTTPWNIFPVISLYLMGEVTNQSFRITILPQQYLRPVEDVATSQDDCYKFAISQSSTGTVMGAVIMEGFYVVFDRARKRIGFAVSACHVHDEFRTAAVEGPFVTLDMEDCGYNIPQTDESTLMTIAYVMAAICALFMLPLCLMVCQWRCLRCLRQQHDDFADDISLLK

[4] = molecular target: T2, Gamma-aminobutyric acid receptor subunit alpha-2 (Homo sapiens, UniProt P47869); assay: Inhibition of GABAA alpha2 receptor (unknown origin)
T2 sequence (P47869 whole entry): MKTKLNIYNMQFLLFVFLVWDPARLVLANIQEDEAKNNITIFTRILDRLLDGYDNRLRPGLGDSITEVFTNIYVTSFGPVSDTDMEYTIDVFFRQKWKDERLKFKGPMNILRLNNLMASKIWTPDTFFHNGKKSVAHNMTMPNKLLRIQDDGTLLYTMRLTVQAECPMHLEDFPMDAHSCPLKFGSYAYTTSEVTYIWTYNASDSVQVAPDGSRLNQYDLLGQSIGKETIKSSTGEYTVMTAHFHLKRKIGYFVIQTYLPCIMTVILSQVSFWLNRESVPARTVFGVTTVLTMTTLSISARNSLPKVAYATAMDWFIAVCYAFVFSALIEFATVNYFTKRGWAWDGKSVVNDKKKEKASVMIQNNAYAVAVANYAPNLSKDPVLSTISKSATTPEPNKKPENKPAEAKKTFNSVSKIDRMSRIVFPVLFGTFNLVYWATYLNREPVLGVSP

[5] = molecular target: T3, Gamma-aminobutyric acid receptor subunit alpha-6 (Homo sapiens, UniProt Q16445); assay: Binding affinity to GABAA alpha6 receptor (unknown origin) assessed as inhibition constant
T3 sequence (Q16445 whole entry): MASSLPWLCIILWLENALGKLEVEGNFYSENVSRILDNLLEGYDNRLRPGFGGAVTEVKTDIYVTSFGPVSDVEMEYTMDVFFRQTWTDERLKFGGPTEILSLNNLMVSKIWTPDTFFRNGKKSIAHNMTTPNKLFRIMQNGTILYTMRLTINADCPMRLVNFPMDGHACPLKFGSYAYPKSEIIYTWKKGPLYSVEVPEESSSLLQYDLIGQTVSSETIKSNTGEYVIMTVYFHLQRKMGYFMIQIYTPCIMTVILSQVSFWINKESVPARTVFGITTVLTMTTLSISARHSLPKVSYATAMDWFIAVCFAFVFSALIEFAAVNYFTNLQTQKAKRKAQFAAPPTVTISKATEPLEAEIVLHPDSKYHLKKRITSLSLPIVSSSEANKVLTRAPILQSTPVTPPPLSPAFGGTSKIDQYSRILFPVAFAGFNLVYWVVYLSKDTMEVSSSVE

[6] = molecular target: T4, Gamma-aminobutyric acid receptor subunit alpha-3 (Homo sapiens, UniProt P34903); assay: Inhibition of GABAA alpha3 receptor (unknown origin)
T4 sequence (P34903 whole entry): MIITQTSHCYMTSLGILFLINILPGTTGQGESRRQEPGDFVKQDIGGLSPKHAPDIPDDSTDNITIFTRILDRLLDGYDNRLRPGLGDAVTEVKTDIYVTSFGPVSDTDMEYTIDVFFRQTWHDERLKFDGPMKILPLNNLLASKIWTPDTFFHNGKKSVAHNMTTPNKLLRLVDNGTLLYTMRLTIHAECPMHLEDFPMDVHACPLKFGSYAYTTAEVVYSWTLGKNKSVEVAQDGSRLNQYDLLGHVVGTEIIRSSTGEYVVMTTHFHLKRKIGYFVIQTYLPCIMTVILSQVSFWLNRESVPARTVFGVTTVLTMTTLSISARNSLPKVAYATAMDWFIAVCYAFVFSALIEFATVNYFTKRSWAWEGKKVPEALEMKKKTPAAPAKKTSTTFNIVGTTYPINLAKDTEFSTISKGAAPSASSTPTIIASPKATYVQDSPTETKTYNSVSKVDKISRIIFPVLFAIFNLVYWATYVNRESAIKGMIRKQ

[7] = molecular target: T5, Gamma-aminobutyric acid receptor subunit alpha-5 (Homo sapiens, UniProt P31644); assay: Binding affinity to human recombinant GABAA alpha5 receptor assessed as inhibition constant incubated for 1 hrs by liquid scintillation counting analysis
T5 sequence (P31644 whole entry): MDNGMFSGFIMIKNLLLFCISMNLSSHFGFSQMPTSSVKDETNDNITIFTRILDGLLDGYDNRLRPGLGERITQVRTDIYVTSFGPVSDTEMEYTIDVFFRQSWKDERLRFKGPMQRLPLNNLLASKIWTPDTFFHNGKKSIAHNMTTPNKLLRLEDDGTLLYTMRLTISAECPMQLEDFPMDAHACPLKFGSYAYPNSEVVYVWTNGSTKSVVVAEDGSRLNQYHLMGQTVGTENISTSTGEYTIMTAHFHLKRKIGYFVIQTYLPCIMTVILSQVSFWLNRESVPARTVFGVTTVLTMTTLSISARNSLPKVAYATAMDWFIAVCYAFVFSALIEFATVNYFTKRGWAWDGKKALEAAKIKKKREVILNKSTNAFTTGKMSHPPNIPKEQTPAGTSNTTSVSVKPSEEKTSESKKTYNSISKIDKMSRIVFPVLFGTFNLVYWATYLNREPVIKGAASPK

[8] = molecular target: T2, Gamma-aminobutyric acid receptor subunit alpha-2; assay: Binding affinity to human recombinant GABAA alpha2 receptor assessed as inhibition constant incubated for 1 hrs by liquid scintillation counting analysis
[9] = molecular target: T4, Gamma-aminobutyric acid receptor subunit alpha-3; assay: Binding affinity to human recombinant GABAA alpha3 receptor assessed as inhibition constant incubated for 1 hrs by liquid scintillation counting analysis
[10] = molecular target: T3, Gamma-aminobutyric acid receptor subunit alpha-6; assay: Binding affinity to human recombinant GABAA alpha6 receptor assessed as inhibition constant incubated for 1 hrs by liquid scintillation counting analysis
[11] = molecular target: T6, Gamma-aminobutyric acid receptor subunit alpha-1 (Homo sapiens, UniProt P14867); assay: Inhibition of GABAA alpha1 receptor (unknown origin)
T6 sequence (P14867 whole entry): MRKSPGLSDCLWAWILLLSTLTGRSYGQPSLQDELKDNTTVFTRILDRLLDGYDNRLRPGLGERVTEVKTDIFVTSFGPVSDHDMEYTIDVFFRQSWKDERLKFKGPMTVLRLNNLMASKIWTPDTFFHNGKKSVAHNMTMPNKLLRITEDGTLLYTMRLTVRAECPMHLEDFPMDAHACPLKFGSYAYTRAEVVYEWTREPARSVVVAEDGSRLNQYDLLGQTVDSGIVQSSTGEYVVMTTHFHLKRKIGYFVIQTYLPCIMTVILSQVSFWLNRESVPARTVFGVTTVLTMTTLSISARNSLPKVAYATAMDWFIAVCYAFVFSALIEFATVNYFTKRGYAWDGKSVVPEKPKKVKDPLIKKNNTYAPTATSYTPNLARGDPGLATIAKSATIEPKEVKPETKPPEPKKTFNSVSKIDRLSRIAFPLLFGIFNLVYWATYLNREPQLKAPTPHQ

[12] = molecular target: T6, Gamma-aminobutyric acid receptor subunit alpha-1; assay: Binding affinity to human recombinant GABAA alpha1 receptor assessed as inhibition constant incubated for 1 hrs by liquid scintillation counting analysis
[13] = molecular target: T5, Gamma-aminobutyric acid receptor subunit alpha-5; assay: Inhibition of GABAA alpha5 receptor (unknown origin)
Cholinesterase [14] = molecular target: T7, Cholinesterase (Homo sapiens, UniProt P06276); assay: Inhibition of BuChE (unknown origin)
T7 sequence (P06276 whole entry): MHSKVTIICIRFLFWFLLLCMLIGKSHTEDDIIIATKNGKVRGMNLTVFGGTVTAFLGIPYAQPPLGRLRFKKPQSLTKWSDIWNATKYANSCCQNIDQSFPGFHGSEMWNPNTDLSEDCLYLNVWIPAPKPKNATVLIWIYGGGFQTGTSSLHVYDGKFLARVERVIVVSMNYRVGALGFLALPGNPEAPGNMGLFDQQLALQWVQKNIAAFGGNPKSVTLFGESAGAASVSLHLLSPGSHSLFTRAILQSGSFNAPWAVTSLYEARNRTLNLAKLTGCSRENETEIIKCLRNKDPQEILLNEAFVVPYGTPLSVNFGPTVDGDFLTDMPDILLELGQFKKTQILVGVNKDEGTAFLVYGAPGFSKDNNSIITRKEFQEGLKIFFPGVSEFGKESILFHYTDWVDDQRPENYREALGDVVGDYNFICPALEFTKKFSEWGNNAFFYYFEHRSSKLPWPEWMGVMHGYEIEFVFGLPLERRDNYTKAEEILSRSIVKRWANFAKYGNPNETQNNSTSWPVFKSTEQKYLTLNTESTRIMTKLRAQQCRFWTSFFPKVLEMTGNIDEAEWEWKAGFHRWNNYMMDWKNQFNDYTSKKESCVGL

[15] = molecular target: Amyloid-beta precursor protein (Homo sapiens) (UniProt P05067); assay: Inhibition of amyloid beta (unknown origin) aggregation at 20 uM relative to control
Sequence of Amyloid-beta precursor protein (Homo sapiens) (P05067 whole entry): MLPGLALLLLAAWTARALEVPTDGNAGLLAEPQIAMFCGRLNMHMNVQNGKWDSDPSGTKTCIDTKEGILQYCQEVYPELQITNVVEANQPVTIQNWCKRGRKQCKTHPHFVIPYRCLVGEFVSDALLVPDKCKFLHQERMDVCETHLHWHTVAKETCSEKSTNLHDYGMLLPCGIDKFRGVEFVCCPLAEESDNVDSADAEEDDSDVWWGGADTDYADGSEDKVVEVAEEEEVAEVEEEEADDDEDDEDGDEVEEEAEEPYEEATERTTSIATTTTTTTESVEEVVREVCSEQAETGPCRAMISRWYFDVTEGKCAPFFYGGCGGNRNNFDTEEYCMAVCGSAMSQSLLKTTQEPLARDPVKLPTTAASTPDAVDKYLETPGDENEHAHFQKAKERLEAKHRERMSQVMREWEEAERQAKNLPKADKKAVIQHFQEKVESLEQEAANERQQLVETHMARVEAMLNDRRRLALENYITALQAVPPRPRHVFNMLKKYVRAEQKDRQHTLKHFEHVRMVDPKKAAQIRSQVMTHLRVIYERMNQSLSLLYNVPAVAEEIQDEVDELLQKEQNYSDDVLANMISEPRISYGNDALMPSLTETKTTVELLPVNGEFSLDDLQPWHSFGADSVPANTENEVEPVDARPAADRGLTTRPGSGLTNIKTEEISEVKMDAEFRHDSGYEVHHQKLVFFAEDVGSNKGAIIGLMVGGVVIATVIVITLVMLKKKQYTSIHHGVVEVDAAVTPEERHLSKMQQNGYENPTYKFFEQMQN

Acetylcholinesterase = Acetylcholinesterase (Homo sapiens, UniProt P22303); assay: Inhibition of AChE (unknown origin)
Sequence of Acetylcholinesterase (P22303 whole entry): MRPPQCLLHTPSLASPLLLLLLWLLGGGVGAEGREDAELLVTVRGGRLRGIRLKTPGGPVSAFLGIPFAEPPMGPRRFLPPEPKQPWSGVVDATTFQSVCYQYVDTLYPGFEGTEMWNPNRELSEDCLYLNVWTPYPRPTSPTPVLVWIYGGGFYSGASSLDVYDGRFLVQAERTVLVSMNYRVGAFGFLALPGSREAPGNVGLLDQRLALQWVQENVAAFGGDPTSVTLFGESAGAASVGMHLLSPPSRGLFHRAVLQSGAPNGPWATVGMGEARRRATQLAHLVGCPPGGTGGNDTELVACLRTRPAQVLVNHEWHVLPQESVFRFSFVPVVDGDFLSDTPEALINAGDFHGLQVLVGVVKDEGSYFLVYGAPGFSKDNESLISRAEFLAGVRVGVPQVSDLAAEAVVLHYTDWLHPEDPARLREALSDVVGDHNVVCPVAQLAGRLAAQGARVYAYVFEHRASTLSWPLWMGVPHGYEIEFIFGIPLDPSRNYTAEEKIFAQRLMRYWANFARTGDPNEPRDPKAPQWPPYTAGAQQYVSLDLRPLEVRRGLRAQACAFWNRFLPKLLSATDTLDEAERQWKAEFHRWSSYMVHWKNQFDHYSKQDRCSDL

Cholinesterase [16] = molecular target: T7, Cholinesterase; assay: Inhibition of BuChE (unknown origin) assessed as inhibition of A-beta aggregation at 100 uM relative to control
[17] = molecular target: cGMP-specific 3',5'-cyclic phosphodiesterase (Homo sapiens, UniProt O76074); assay: Inhibition of PDE5 (unknown origin)
[18] = Aqueous solubility of compound; type: physicochemical; settings: water

Sequence of 5-hydroxytryptamine receptor 2A (P28223 whole entry): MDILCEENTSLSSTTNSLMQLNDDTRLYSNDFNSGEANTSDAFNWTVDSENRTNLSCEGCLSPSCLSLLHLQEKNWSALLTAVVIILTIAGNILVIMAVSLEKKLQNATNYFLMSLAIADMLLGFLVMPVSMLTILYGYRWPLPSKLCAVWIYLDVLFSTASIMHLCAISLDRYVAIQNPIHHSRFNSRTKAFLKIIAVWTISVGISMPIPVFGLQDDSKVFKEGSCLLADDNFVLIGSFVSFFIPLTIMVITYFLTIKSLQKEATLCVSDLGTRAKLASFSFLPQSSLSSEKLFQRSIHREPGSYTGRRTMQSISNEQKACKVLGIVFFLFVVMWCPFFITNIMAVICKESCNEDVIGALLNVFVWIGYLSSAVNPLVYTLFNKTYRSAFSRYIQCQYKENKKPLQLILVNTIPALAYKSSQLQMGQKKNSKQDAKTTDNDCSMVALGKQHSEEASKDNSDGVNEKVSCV

With `CC1=NCCc2c1[nH]c1ccccc21` the Ki [1] was 990 nM, the Ki [2] was > 10 µM and the Ki [3] was 1700 nM.
In the case of `OC[C@@H]1Cc2c([nH]c3ccccc23)CN1Cc1cn(C[C@@H]2Cc3c([nH]c4ccccc34)CN2)nn1`, the IC50 (Beta-secretase 1) is reported as 17 µM.
For `c1ccc2c(c1)[nH]c1cnc3c4ccncc4[nH]c3c12`, the IC50 [4] was 24 nM, the Ki [5] was > 10 µM and the IC50 [6] was 31 nM. For the same compound, the Ki [7] was 240 nM, the Ki [8] was 24 nM and the Ki [9] was 31 nM. The Ki [10] was > 10 µM, the IC50 [11] was 3 nM and the Ki [12] was 3 nM. For the same compound, the IC50 [13] was 240 nM.
With `CC1c2[nH]c3ccccc3c2CCN1C(=O)/C=C/c1ccc(O)c(O)c1` (stereo unspecified) the IC50 (Cholinesterase [14]) was 1300 nM, the inhibition [15] was 72% and the IC50 (Acetylcholinesterase) was 21 µM.
For `Cc1ccc2[nH]c3c4[n+](ccc3c2c1)-c1ccccc1C4=O`, the inhibition (Cholinesterase [16]) was 38%.
In the case of `c1ccc2c(c1)[nH]c1cnc3c4cccnc4[nH]c3c12`, the IC50 [4] is reported as 12 nM, the Ki [5] is reported as > 10 µM and the IC50 [6] is reported as 16 nM. The Ki [7] was 200 nM, the Ki [8] was 12 nM and the Ki [9] was 16 nM. The Ki [10] was > 10 µM, the IC50 [11] was 2 nM and the Ki [12] was 2 nM. For the same compound, the IC50 [13] was 200 nM.
Compound `COc1ccc([C@@H]2c3[nH]c4ccccc4c3C[C@@H]3C(=O)N(CCC4CCN(Cc5ccccc5)CC4)CC(=O)N23)cc1` has an IC50 [17] of 200 nM, a solubility [18] of 1400 µg/mL (≈ 2490 µM) and an IC50 (Acetylcholinesterase) of 0.031 µM.
